Assay results published in PMC9605374 (Marine Drugs, 2022).
Where two headings read alike, the source gives them in different places.

Experiments:
[1] = test system: 22Rv1 cells; assay: Annexin-V-FITC/PI double staining, flow cytometry; type: cell-based, human; settings: 22Rv1, zVAD 100 µM 1 h pretreatment, 48 h
Experimental: Figure 4 Investigation of the proapoptotic activity of NB. Flow cytometry analysis of 22Rv1 cells after 48 h of treatment. (A) Cell cycle and DNA fragmentation analysis. Treated cells were stained with PI and analyzed using a flow cytometry technique. Sub-G1 population was assumed to be apoptotic cells containing fragmentated DNA. (B) Analysis of phosphatidylserine externalization. Treated cells were double-stained with annexin-V-FITC and PI and analyzed using the flow cytometry technique. Cells of the low left quadrant (annexin-V-FITC^−/PI^−) were considered as alive cells. The Cell Quest Pro v.5.2.1 software (BD Bioscience, San Jose, CA, USA) was used to analyze and quantify the FACS data. Cells treated for 48 h with 10 µM of anisomycin were used as a positive control. Number of replicates n = 3. Statistical significance: * p < 0.05 (ANOVA). […]
Externalization of phosphatidylserine is a distinct marker of apoptotic cell death that can be detected by flow cytometry using annexin-V-FITC and propidium iodide (PI) double staining. […] Cells were harvested utilizing trypsin, stained with annexin-V-FITC and propidium iodide, and analyzed using FACS Calibur (BD Bioscience, San Jose, CA, USA).

[2] = test system: HeLa cells; set-up: method as in PMID 28051860; settings: cited from earlier work
[3] = test system: 22Rv1; assay: MTT assay, cell viability; type: cell-based; settings: Homo sapiens, 22Rv1, 48 h of treatment, mean ± SD
Source text: (§1) To examine the anticancer potential and selectivity of NB, we used a panel of six human prostate cancer cell lines, harboring different levels of treatment resistance to representatively reflect the heterogeneity of the disease. […] Additionally, four human noncancer cells lines were utilized in order to determine the selectivity of NB towards prostate cancer cells, i.e., prostate noncancer PNT2 and RWPE-1 cells, human embryonic kidney HEK 293T cells, and human fibroblasts MRC-9. The different cell lines were treated with NB and the cell viability was examined using MTT assay (Figure 1). The mean IC50 of NB and docetaxel (used as a reference substance) in noncancerous cell lines was divided by the mean IC50 in the prostate cancer cell lines to determine the selectivity index (SI).
(§2) The MTT assay was used to monitor the effect of the drugs on cell viability in terms of metabolic activity, as previously reported. First, preincubation of the cells in 96-well plates (6 × 10^3 cells/well in 100 μL/well) was performed overnight in the correspondent culture medium. Next, the medium was exchanged for fresh medium containing the investigated compounds or a vehicle (100 μL/well). Cells were then incubated for 48 h, unless otherwise stated. Then, 10 μL/well of 3-(4,5-dimethylthiazol-2-yl)-2,5-diphenyltetrazolium bromide reagent (MTT, 5 mg/mL) were added. After 2–4 h of additional incubation the media was removed, and the plates were dried. Finally, 50 μL/well of DMSO were added to solve the formed formazan crystals produced by the metabolic active cells and Infinite F200PRO reader (TECAN, Männedorf, Switzerland) was used to measure the cell viability. The results were proceeded with a GraphPad Prism software v.9.1.1 (GraphPad Software, San Diego, CA, USA). Cells treated with the solvent of the drugs alone were used as a control (100% alive cells). The effect of the drugs on cell viability is represented as IC50.

[4] = test system: DU145; assay: MTT assay, cell viability; type: cell-based; settings: Homo sapiens, DU-145, DU145, 48 h of treatment, mean ± SD
Source text: as §1, §2

[5] = test system: HEK293; assay: MTT assay, cell viability; type: cell-based; settings: Homo sapiens, HEK293, 48 h of treatment, mean ± SD
Source text: as §1, §2

[6] = test system: MRC-9; assay: MTT assay, cell viability; type: cell-based; settings: Homo sapiens, MRC9, MRC-9, 48 h of treatment, mean ± SD
Source text: as §1, §2

[7] = test system: PC3; assay: MTT assay, cell viability; type: cell-based; settings: Homo sapiens, PC-3, PC3, 48 h of treatment, mean ± SD
Source text: as §1, §2

[8] = test system: PNT2; assay: MTT assay, cell viability; type: cell-based; settings: Homo sapiens, PNT2, 48 h of treatment, mean ± SD
Source text: as §1, §2

[9] = test system: RWPE-1; assay: MTT assay, cell viability; type: cell-based; settings: Homo sapiens, RWPE-1, 48 h of treatment, mean ± SD
Source text: as §1, §2

[10] = test system: VCaP; assay: MTT assay, cell viability; type: cell-based; settings: Homo sapiens, 48 h of treatment, mean ± SD
Source text: as §1, §2

[11] = test system: PC3-DR; assay: MTT assay, cell viability; type: cell-based, human; settings: Homo sapiens, PC3-DR, 48 h of treatment, mean ± SD
Source text: as §1, §2

[12] = test system: prostate cancer cells; assay: MTT assay, mean IC50 in cancer cell panel and selectivity index; type: cell-based, human
Source text: as §1, §2

[13] = test system: noncancer cells; assay: MTT assay, mean IC50 in noncancer cell panel; type: cell-based; settings: Homo sapiens, mean over PNT2, RWPE-1, HEK293, MRC-9, 48 h
Source text: as §1
The MTT assay was used to monitor the effect of the drugs on cell viability in terms of metabolic activity, as previously reported. First, preincubation of the cells in 96-well plates (6 × 10^3 cells/well in 100 μL/well) was performed overnight in the correspondent culture medium. Next, the medium was exchanged for fresh medium containing the investigated compounds or a vehicle (100 μL/well). […] Finally, 50 μL/well of DMSO were added to solve the formed formazan crystals produced by the metabolic active cells and Infinite F200PRO reader (TECAN, Männedorf, Switzerland) was used to measure the cell viability. […]

[14] = test system: PC3-DR cells; assay: Drug combination study NB with docetaxel, MTT assay, SynergyFinder 2.0; type: cell-based; settings: Homo sapiens, PC3-DR, NB 0, 24 h, MTT
Experimental: Thus, drug-resistant PC3-DR cells were treated with docetaxel in combination with NB (Figure 9). Potential synergism between NB and docetaxel was measured by the Chou–Talalay method as described before.
Figure 9 Combinational treatment on PC3-DR cells with NB and docetaxel. […] MTT assay was used to examine cellular viability. Number of replicates n = 3. (A) The heatmap represents cytotoxicity (viability inhibition) of the individual drugs or their combinations. (B,C) To calculate and visualize in 2D (B) or 3D (C) the effect of the drug combination (synergism/additive effect/antagonism), the SynergyFinder v. 2.0 software (Network Pharmacology for Precision Medicine in the Research Program of System Oncology, Faculty of Medicine at University of Helsinki, Helsinki, Finland) and a ZIP reference model were used. Green regions indicate antagonism, white regions refer to additive effect, and red regions indicate synergism.
(§3) The experiments were carried out as previously reported. […] 22Rv1 cells (6 × 10^3 cells/well in 96-well plates) were simultaneously treated with NB and docetaxel; or pretreated with MAPK inhibitors for 1 h following treatment with NB in the total media volume of 100 µL/well. Following 24 h of incubation, the viability of the cells treated with individual drugs as well as their combinations was determined using MTT assay. […] Red areas (positive δ-values) and green areas (negative δ-values) indicate synergism and antagonism, respectively.

[15] = test system: PC3-DR cells; settings: PC3-DR vs PC3; cited from earlier work
[16] = test system: 22Rv1 cells; assay: Drug combination study NB with MAPK inhibitors, MTT assay, SynergyFinder 2.0; type: cell-based; settings: Homo sapiens, MTT
Source text: Whether activation of MAPKs contribute to cell death or survival depends not only on the cellular context, but also on the nature of the activating stimuli. Thus, to reveal the function of JNK1/2 and p38 in the anticancer effect of NB, we co-treated 22Rv1 cells with NB and specific inhibitors of the above-mentioned MAPKs. […] As MEK1/2 kinase directly and exclusively activates ERK1/2, PD98039 inhibitor is often used as an ERK1/2 inhibitor [38]. Thus, an inactivation of MEK1/2 leads solely to an inhibition of ERK1/2 [38]. Since the inhibitors themselves exert cytotoxic effects in cancer cells, we used a Chou–Talalay method to distinguish between synergism, additive effects, or antagonistic effects of the particular MAPK inhibitor on the compound bioactivity. For this, using an MTT assay, we determined a cytotoxic effect on various concentrations of NB, MAPK inhibitors, and their combinations in 22Rv1 cells. The viability data were further analyzed using the SynergyFinder v. 2.0 software (Network Pharmacology for Precision Medicine in the Research Program of System Oncology, Faculty of Medicine at University of Helsinki, Helsinki, Finland) and a Zero interaction potency (ZIP) reference model (Figure 7).
as §3

With `COc1ccc(C[C@H]2NC[C@H](O)[C@H]2OC(C)=O)cc1` [Anisomycin, anisomycin, reference compound] the “effect of pretreatment with pan-caspase inhibitor zVAD on drug-induced cell death” value [1] was “strongly inhibited”.
For `COc1ccc2cc(NC(=O)C3=NO[C@H]4[C@H](O)C=C[C@@H](O)[C@@]4(O)C3)c(=O)oc2c1OC` [trichodermamide A], the “cytotoxic activity in HeLa cells” value [2] is given as “inactive”.
For `COc1ccc2cc(N(C)C(=O)C3=NO[C@H]4[C@H](O)C=C[C@@H](O)[C@@]4(O)C3)c(=O)oc2c1OC` [trichodermamide C], the “cytotoxic activity in HeLa cells” value [2] is given as “inactive”.
Work on `CC(=O)O[C@@]12CO[C@@H]1C[C@H](O)[C@@]1(C)C(=O)[C@H](O)C3=C(C)[C@@H](OC(=O)[C@H](O)[C@@H](NC(=O)OC(C)(C)C)c4ccccc4)C[C@@](O)([C@@H](OC(=O)c4ccccc4)[C@H]21)C3(C)C` [Docetaxel, docetaxel, reference compound] yielded an IC50 [3] of 0.6 ± 0.12 nM, an IC50 [4] of 2.2 ± 0.6 nM and an IC50 [5] of 11.5 ± 3.22 nM. The IC50 [6] was greater than 500 nM, the IC50 [7] was 7.49 ± 7.09 nM and the IC50 [8] was greater than 500 nM. The IC50 [9] was 0.42 ± 0.23 nM, the IC50 [10] was 0.23 ± 0.22 nM and the IC50 [11] was 325 ± 21.7 nM. For the same compound, the IC50 ([12]; Homo sapiens, mean over PC3, PC3-DR, DU145, 22Rv1, VCaP, LNCaP, 48 h, MTT) was 56.8 nM, the “Selectivity Index (SI)” value ([12]; [mean IC50 in noncancer cells]/[mean IC50 in cancer cells]) was 4.5 and the IC50 [13] was 253 nM. It also gave an inhibition at 0.00625 µM ([14]; docetaxel 6.25 nM) of 8.64%, an inhibition at 0.025 µM ([14]; docetaxel 25 nM) of 18.7% and an inhibition at 0.1 µM ([14]; docetaxel 100 nM) of 31%. The inhibition at 0.4 µM ([14]; docetaxel 400 nM) was 58.8%, the “fold less sensitivity of PC3-DR compared to parental cell line” value [15] was ~ 50 fold and the “fold more resistant compared to the parental cell line PC3” value [15] was ~ 50 fold.
Work on `C[S+]([O-])c1ccc(-c2nc(-c3ccncc3)c(-c3ccc(F)cc3)[nH]2)cc1` (stereo not drawn) [SB203580, reference compound] yielded an inhibition at 12.5 µM ([16]; 22Rv1, 22Rv1, inhibitor alone 12.5 μM (NB 0)) of 27.6%, an inhibition at 25 µM ([16]; 22Rv1, 22Rv1, inhibitor alone 25 μM (NB 0)) of 39.7% and an inhibition at 50 µM ([16]; 22Rv1, 22Rv1, inhibitor alone 50 μM (NB 0)) of 53.3%. For the same compound, the inhibition at 100 µM ([16]; 22Rv1, 22Rv1, inhibitor alone 100 μM (NB 0)) was 63.9%.
In the case of `COc1ccc2cc(NC(=O)C3=NO[C@H]4[C@H](O)C=C[C@@H](Cl)[C@@]4(O)C3)c(=O)oc2c1OC` [trichodermamide B], the “cytotoxic activity in HeLa cells” value [2] is listed as “high cytotoxic activity”.
`Oc1c2ccccc2c2c3c(cccc13)N=N2` [SP600125, reference compound] gave an inhibition at 12.5 µM ([16]; 22Rv1, inhibitor alone 12.5 μM (NB 0), read-out: Inhibition (%)) of -5.92%, an inhibition at 25 µM ([16]; 22Rv1, inhibitor alone 25 μM (NB 0), read-out: Inhibition (%)) of 0.99% and an inhibition at 50 µM ([16]; 22Rv1, inhibitor alone 50 μM (NB 0), read-out: Inhibition (%)) of 19.4%. For the same compound, the inhibition at 100 µM ([16]; 22Rv1, inhibitor alone 100 μM (NB 0), read-out: Inhibition (%)) was 27.5%.
